Tested on: rat âgé
Assay: Chronic treatment of the aged rat: arterial blood pressure
Assay type: in vivo
Conditions: young rat (3 months per Tableau 1); 0,1 à 1 mg /kg par jour for 2 weeks
Procedure: Etude du traitement chronique du rat âgé
Au cours du vieillissement, une insulino-résistance apparaît, accompagnée d'une hyperinsulinémie et d'une élévation de la pression artérielle (cf tableau 1 ci-après).
A titre d'exemple, le traitement par le gliclazide à la dose de 0,1 à 1 mg /kg par jour pendant 2 semaines, diminue la pression artérielle du rat âgé de 9.10² à 11.10² Pa sans modifier celle du rat jeune.

## Cc1ccc(S(=O)(=O)NC(=O)NN2CC3CCCC3C2)cc1 (stereo not shown) [gliclazide]
  pression artérielle du rat jeune: sans modifier
